Results reported in paper PMC3949122 (Current biology : CB, 2014).
Like-named read-outs stand apart in the source and are kept apart here. Where no end group is shown, it is not given here.

Assays:
TRPA1 [1] = details: cited from earlier work; for activation of TRPA1 by allosteric modulators: interact with transmembrane domains, not the intracellular C-terminus, ref [41], [45], [46]; for activation of TRPA1 via covalent modification: ref [40]-[44]
NaV1.2 = assay type: cell-based; details: membrane-tethered, co-expressed; voltage-induced currents
TRPA1 [2] = target: TRPA1 (Homo sapiens, UniProt O75762); assay type: cell-based; details: alanine scanning of t-ProTx-I; label = residue mutated to Ala
Chain of TRPA1 (Homo sapiens, UniProt O75762) (O75762 whole entry): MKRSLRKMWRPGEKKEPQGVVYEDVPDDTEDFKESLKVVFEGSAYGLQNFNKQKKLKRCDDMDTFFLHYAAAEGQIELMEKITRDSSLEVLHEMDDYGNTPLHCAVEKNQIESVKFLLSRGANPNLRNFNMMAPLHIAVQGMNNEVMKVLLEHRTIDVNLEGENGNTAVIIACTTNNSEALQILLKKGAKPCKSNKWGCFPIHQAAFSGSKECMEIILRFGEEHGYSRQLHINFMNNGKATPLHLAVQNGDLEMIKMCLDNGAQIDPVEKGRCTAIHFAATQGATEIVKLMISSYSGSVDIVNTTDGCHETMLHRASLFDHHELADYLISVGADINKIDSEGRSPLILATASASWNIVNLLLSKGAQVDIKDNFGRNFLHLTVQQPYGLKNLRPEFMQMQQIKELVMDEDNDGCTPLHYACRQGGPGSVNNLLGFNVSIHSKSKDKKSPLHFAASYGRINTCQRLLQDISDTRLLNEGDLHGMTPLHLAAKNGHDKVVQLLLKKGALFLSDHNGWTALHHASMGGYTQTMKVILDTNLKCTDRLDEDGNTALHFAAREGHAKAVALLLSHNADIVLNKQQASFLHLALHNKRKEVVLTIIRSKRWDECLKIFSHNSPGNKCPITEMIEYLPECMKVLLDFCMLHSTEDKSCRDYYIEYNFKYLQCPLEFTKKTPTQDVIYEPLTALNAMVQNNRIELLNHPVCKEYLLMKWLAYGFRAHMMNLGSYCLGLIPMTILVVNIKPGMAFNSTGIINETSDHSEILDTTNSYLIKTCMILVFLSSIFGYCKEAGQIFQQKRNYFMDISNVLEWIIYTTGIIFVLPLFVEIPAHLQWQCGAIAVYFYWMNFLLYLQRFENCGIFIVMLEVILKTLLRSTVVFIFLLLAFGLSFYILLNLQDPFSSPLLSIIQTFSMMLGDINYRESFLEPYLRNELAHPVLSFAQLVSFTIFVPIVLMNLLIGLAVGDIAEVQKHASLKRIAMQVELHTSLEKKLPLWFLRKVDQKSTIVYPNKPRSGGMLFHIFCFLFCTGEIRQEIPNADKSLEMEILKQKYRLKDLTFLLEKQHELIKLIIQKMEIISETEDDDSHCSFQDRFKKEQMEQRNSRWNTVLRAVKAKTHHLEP

CN(C)CCCN1c2ccccc2Sc2ccc(Cl)cc21 [chlorpromazine]
activation of TRPA1 (TRPA1 [1]; ref [8]): activated

CC1CCC(C(C)C)C(O)C1 (stereo not shown) [menthol]
activation of TRPA1 by allosteric modulators (TRPA1 [1]): allosteric modulators

C=CCS[S+]([O-])CC=C (stereo not shown) [allicin]
activation of TRPA1 (TRPA1 [1]; ref [5], [6]): activated

t-ProTx-I (S22A) (ECRYWLGGCSAGQTCCKHLVCARRHGWCVWDGTFS; ends and bridges not checked; also: membrane tether; UniProt P83480 1-35, looked up, variant S22A)
activity of t-ProTx-I alanine mutant against NaV1.2 / voltage-gated sodium channels (NaV1.2): strongly active | residue whose mutation to alanine reduces inhibition of TRPA1 (binding surface) (TRPA1 [2]): in common between the two binding surfaces

C=CCN=C=S [allyl isothiocyanate]
activation of TRPA1 via covalent modification (TRPA1 [1]): activates TRPA1 | activation of TRPA1 (TRPA1 [1]; ref [5], [6]): activated

CCCCCC(O)/C=C/C=O (stereo not shown) [4-hydroxy-nonenal]
activation of TRPA1 via covalent modification (TRPA1 [1]): activates TRPA1

Oc1c(I)cc(Cl)c2cccnc12 [clioquinol]
activation of TRPA1 (TRPA1 [1]; ref [9]): activated

Cc1ccc(C(C)C)cc1O [carvacrol]
activation of TRPA1 by allosteric modulators (TRPA1 [1]): allosteric modulators

Clc1ccccc1C(c1ccccc1)(c1ccccc1)n1ccnc1 [clotrimazole]
activation of TRPA1 (TRPA1 [1]; ref [7]): activated

OCl [hypochlorite]
activation of TRPA1 via covalent modification (TRPA1 [1]): activates TRPA1

OO [hydrogen peroxide]
activation of TRPA1 via covalent modification (TRPA1 [1]): activates TRPA1
